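Cultured in 96-well plates, cells were exposed to test compound for 48 hours across five concentrations. GI50 marks 50% less growth. TGI: concentration producing complete growth inhibition.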
Assays:
Experiment in all cases: NCI tumour cell line growth inhibition, 48 h
[1] = system: HS 578T breast
[2] = system: MDA-N
[3] = system: BT-549 breast
[4] = system: HOP-18 NSCLC
[5] = system: SN12K1 renal
[6] = system: P388 leukemia
[7] = system: LXFL 529 NSCLC
[8] = system: 786-0 renal
[9] = system: RXF-631 renal

| SMILES | TGI [1] [µM] | TGI [2] [µM] | TGI [3] [µM] | TGI [4] [µM] | TGI [5] [µM] | TGI [7] [nM] | further results |
| --- | --- | --- | --- | --- | --- | --- | --- |
| N#Cc1c(C#N)c(SSc2c(C#N)c(C#N)c(N)n2-c2ccccc2)n(-c2ccccc2)c1N | 55.2 | > 56.7 | 30.7 | – | – | – | – |
| CN1OC(=O)N(C)C1c1ccccc1 (centres undefined) | – | – | – | > 100 | > 100 | – | TGI [6]: > 100 µM |
| CNC(=O)CN1CC(=O)N(C)C(=O)C1 | – | – | – | – | – | > 100000 | – |
| O=C(O)CCC1(c2ccccc2)NC(=O)NC1=O (centres undefined) | > 100 | > 100 | > 100 | – | – | – | TGI [8]: > 100 µM |
| CC(=O)Oc1c(OC(C)=O)c(-c2ccc(O)c(O)c2)c(O)c(O)c1-c1ccc(O)cc1 | – | – | – | > 100 | > 100 | – | GI50 [5]: 48.6 µM |
| Nc1ccn(C2OC(COP(=O)(O)Oc3ccccc3)C(O)C2O)c(=O)n1 (centres undefined) | – | – | – | 98.1 | > 100 | – | TGI [6]: 15.7 µM |
| COc1ccc(NC2=NCCO2)c2ccccc12 | > 10 | > 10 | – | – | – | – | – |
| Cc1nc(-c2nc([N+](=O)[O-])c([N+](=O)[O-])[nH]2)cs1 | – | – | – | – | – | > 100000 | TGI [9]: > 100 µM |
| CCN1/C(=C/C(C)=C/c2sc3ccccc3[n+]2CC)Sc2ccccc21 | – | – | – | – | – | 1200 | – |
| O/N=C\c1cc(O)c(O)c(/C=N/O)c1 | > 100 | > 100 | > 100 | – | – | – | – |
| Cc1ccc2[nH]c3c(C)c4ccncc4c(C)c3c2c1 | – | – | – | 4.6 | 2.29 | 2420 | TGI [6]: 3.09 µM |
| O=C(CCN1CCCC1)Nc1ccc2c(NCCCc3ccccc3)c3ccccc3nc2c1 | – | – | 3.11 | – | – | – | GI50 [3]: 1610 nM |
| COc1cc2c(cc1OC)CCN=C2 | > 100 | > 100 | > 100 | – | – | – | – |

From PubChem BioAssay (NCI)
